From patent publication US20070128217A1 (priority 2003, published 2007)

Tests used:
[1] = tested on: antibodies in sera from SARS patients (sera 1a, 1b, 2, 6, 37, 62, London, SARS-yellow, SARS-green); assay type: binding, human; design: Binding of serum 6 to linear peptides of protein X1 of SARS-CoV Urbani / Binding of serum 37 to linear peptides of protein X1 of SARS-CoV Urbani / Binding of serum 6 to looped/cyclic peptide (PEPSCAN-ELISA) / Binding of serum 37 to looped/cyclic peptide (PEPSCAN-ELISA) / Binding of serum 37 to looped/cyclic peptides of protein X1 of SARS-CoV Urbani / Binding of serum 6 to linear peptides of protein X2 / Binding of serum 37 to linear peptides of protein X2 / Binding of serum 37 to looped/cyclic peptides of protein X2 of SARS-CoV Urbani / Binding of serum 6 to linear peptides of protein M of SARS-CoV Urbani / Binding of serum 37 to linear peptides of protein M of SARS-CoV Urbani / Binding of serum 6 to looped/cyclic peptides of protein M of SARS-CoV Urbani / Binding of serum 37 to looped/cyclic peptides of protein M of SARS-CoV Urbani / Binding of serum 6 to linear peptides of protein X3 of SARS-CoV Urbani / Binding of serum 37 to linear peptides of protein X3 of SARS-CoV Urbani / Binding of serum 37 to looped/cyclic peptides of protein X3 of SARS-CoV Urbani / Binding of serum 6 to linear peptides of protein X4 of SARS-CoV Urbani / Binding of serum 37 to linear peptides of protein X4 of SARS-CoV Urbani / Binding of serum 37 to looped/cyclic peptides of protein X4 of SARS-CoV Urbani / Binding of serum 6 to linear peptides of protein X5 of SARS-CoV Urbani / Binding of serum 37 to linear peptides of protein X5 of SARS-CoV Urbani / Binding of serum 37 to looped/cyclic peptides of protein X5 of SARS-CoV Urbani / Binding of serum 6 to linear peptides of protein N of SARS-CoV Urbani / Binding of serum 37 to linear peptides of protein N of SARS-CoV Urbani / Binding of serum 6 to linear peptide (PEPSCAN-ELISA) / Binding of serum 1a to looped/cyclic peptides of protein N of SARS-CoV Urbani / Binding of serum 1b to looped/cyclic peptides of protein N of SARS-CoV Urbani / Binding of serum 2 to looped/cyclic peptides of protein N of SARS-CoV Urbani / Binding of serum 6 to looped/cyclic peptides of protein N of SARS-CoV Urbani / Binding of serum 37 to looped/cyclic peptides of protein N of SARS-CoV Urbani / Binding of serum 62 to looped/cyclic peptides of protein N of SARS-CoV Urbani / Binding of serum London to looped/cyclic peptides of protein N of SARS-CoV Urbani / Binding of serum SARS-green to looped/cyclic peptides of protein N of SARS-CoV Urbani: unit not given here
[2] = tested on: control sera (pooled serum of ten healthy LUMC hospital workers; commercial negative donor pooled serum from the Dutch bloodbank); assay type: binding, human; design: Binding of Control serum LUMC to linear peptides / Binding of Control serum Blood-bank to linear peptides / Binding of Control serum LUMC to looped peptides / Binding of Control Serum Blood-Bank to Looped peptides / Binding of Control serum LUMC to linear peptides of the protein M of SARS-CoV Urbani / Binding of Control serum Blood-bank to linear peptides of the protein M of SARS-CoV Urbani / Binding of Control serum LUMC to looped peptides of the protein M of SARS-CoV Urbani / Binding of Control Serum Blood-Bank to Looped peptides of the protein M of SARS-CoV Urbani: unit not given here
[3] = tested on: rabbit serum obtained by immunizing a rabbit with the SARS-CoV strain Frankfurt 1; assay type: binding; design: Binding of a rabbit serum to linear peptides / Binding of a rabbit serum to looped peptides / Rabbit serum linear peptides / Rabbit serum looped peptides / Binding of a rabbit serum to linear peptides of protein N of SARS-CoV Urbani (Rabbit serum linear peptides) / Binding of a rabbit serum to looped/cyclic peptides of protein N of SARS-CoV Urbani (Rabbit serum looped peptides): unit not given here

Sequence: YIIKLVFLWLLWPVT
- Binding of serum 1a to linear peptides of protein M of SARS-CoV Urbani [1]: 0.8
- Binding of serum 1a to looped/cyclic peptides of protein M of SARS-CoV Urbani [1]: 0.8
- Binding of serum 1b to linear peptides of protein M of SARS-CoV Urbani [1]: 0.6
- Binding of serum 1b to looped/cyclic peptides of protein M of SARS-CoV Urbani [1]: 0.8
- Binding of serum 2 to linear peptides of protein M of SARS-CoV Urbani [1]: 0.9
- Binding of serum 2 to looped/cyclic peptides of protein M of SARS-CoV Urbani [1]: 0.6
- Binding of serum 6 to linear peptides of protein M of SARS-CoV Urbani [1]: 0.4
- Binding of serum 6 to looped/cyclic peptides of protein M of SARS-CoV Urbani [1]: 0.8
- Binding of serum 37 to linear peptides of protein M of SARS-CoV Urbani [1]: 0.7
- Binding of serum 37 to looped/cyclic peptides of protein M of SARS-CoV Urbani [1]: 0.7
- Binding of serum 62 to linear peptides of protein M of SARS-CoV Urbani [1]: 0.8
- Binding of serum 62 to looped/cyclic peptides of protein M of SARS-CoV Urbani [1]: 0.7
- Binding of serum London to linear peptides of protein M of SARS-CoV Urbani [1]: 0.3
- Binding of serum London to looped/cyclic peptides of protein M of SARS-CoV Urbani [1]: 0.3
- Binding of serum SARS-green to linear peptides of protein M of SARS-CoV Urbani [1]: 0.4
- Binding of serum SARS-green to looped/cyclic peptides of protein M of SARS-CoV Urbani [1]: 0.4
- Binding of serum SARS-yellow to linear peptides of protein M of SARS-CoV Urbani [1]: 0.1
- Binding of serum SARS-yellow to looped/cyclic peptides of protein M of SARS-CoV Urbani [1]: 0.5
- Binding of Control Serum Blood-Bank to Looped peptides of the protein M of SARS-CoV Urbani [2]: 0.8
- Binding of Control serum Blood-bank to linear peptides of the protein M of SARS-CoV Urbani [2]: 0.8
- Binding of Control serum LUMC to linear peptides of the protein M of SARS-CoV Urbani [2]: 0.5
- Binding of Control serum LUMC to looped peptides of the protein M of SARS-CoV Urbani [2]: 0.8
- Rabbit serum linear peptides [3]: 0.4
- Rabbit serum looped peptides [3]: 0.2

Sequence: WSFNPETNILLNVPL
- Binding of serum 1a to linear peptides of protein M of SARS-CoV Urbani [1]: 1.5
- Binding of serum 1a to looped/cyclic peptides of protein M of SARS-CoV Urbani [1]: 0.8
- Binding of serum 1b to linear peptides of protein M of SARS-CoV Urbani [1]: 1.7
- Binding of serum 1b to looped/cyclic peptides of protein M of SARS-CoV Urbani [1]: 0.5
- Binding of serum 2 to linear peptides of protein M of SARS-CoV Urbani [1]: 1.3
- Binding of serum 2 to looped/cyclic peptides of protein M of SARS-CoV Urbani [1]: 0.6
- Binding of serum 6 to linear peptides of protein M of SARS-CoV Urbani [1]: 1.0
- Binding of serum 6 to looped/cyclic peptides of protein M of SARS-CoV Urbani [1]: 0.5
- Binding of serum 37 to linear peptides of protein M of SARS-CoV Urbani [1]: 0.9
- Binding of serum 37 to looped/cyclic peptides of protein M of SARS-CoV Urbani [1]: 0.7
- Binding of serum 62 to linear peptides of protein M of SARS-CoV Urbani [1]: 1.3
- Binding of serum 62 to looped/cyclic peptides of protein M of SARS-CoV Urbani [1]: 0.7
- Binding of serum London to linear peptides of protein M of SARS-CoV Urbani [1]: 1.0
- Binding of serum London to looped/cyclic peptides of protein M of SARS-CoV Urbani [1]: 0.2
- Binding of serum SARS-green to linear peptides of protein M of SARS-CoV Urbani [1]: 1.5
- Binding of serum SARS-green to looped/cyclic peptides of protein M of SARS-CoV Urbani [1]: 0.2
- Binding of serum SARS-yellow to linear peptides of protein M of SARS-CoV Urbani [1]: 1.1
- Binding of serum SARS-yellow to looped/cyclic peptides of protein M of SARS-CoV Urbani [1]: 0.8
- Binding of Control Serum Blood-Bank to Looped peptides of the protein M of SARS-CoV Urbani [2]: 0.6
- Binding of Control serum Blood-bank to linear peptides of the protein M of SARS-CoV Urbani [2]: 1.3
- Binding of Control serum LUMC to linear peptides of the protein M of SARS-CoV Urbani [2]: 1.5
- Binding of Control serum LUMC to looped peptides of the protein M of SARS-CoV Urbani [2]: 0.8
- Rabbit serum linear peptides [3]: 0.3
- Rabbit serum looped peptides [3]: 0.3

Sequence: FAFACADGTRHTYQL
- Binding of serum 1a to linear peptides of protein X4 of SARS-CoV Urbani [1]: 0.7
- Binding of serum 1a to looped/cyclic peptides of protein X4 of SARS-CoV Urbani [1]: 0.8
- Binding of serum 1b to linear peptides of protein X4 of SARS-CoV Urbani [1]: 0.5
- Binding of serum 1b to looped/cyclic peptides of protein X4 of SARS-CoV Urbani [1]: 0.5
- Binding of serum 2 to linear peptides of protein X4 of SARS-CoV Urbani [1]: 0.3
- Binding of serum 2 to looped/cyclic peptides of protein X4 of SARS-CoV Urbani [1]: 0.9
- Binding of serum 6 to linear peptides of protein X4 of SARS-CoV Urbani [1]: 0.5
- Binding of serum 6 to looped/cyclic peptides of protein X4 of SARS-CoV Urbani [1]: 0.5
- Binding of serum 37 to linear peptides of protein X4 of SARS-CoV Urbani [1]: 0.6
- Binding of serum 37 to looped/cyclic peptides of protein X4 of SARS-CoV Urbani [1]: 0.6
- Binding of serum 62 to linear peptides of protein X4 of SARS-CoV Urbani [1]: 0.7
- Binding of serum 62 to looped/cyclic peptides of protein X4 of SARS-CoV Urbani [1]: 0.5
- Binding of serum London to linear peptides of protein X4 of SARS-CoV Urbani [1]: 0.6
- Binding of serum London to looped/cyclic peptides of protein X4 of SARS-CoV Urbani [1]: 0.2
- Binding of serum SARS-green to linear peptides of protein X4 of SARS-CoV Urbani [1]: 0.4
- Binding of serum SARS-green to looped/cyclic peptides of protein X4 of SARS-CoV Urbani [1]: 0.5
- Binding of serum SARS-yellow to linear peptides of protein X4 of SARS-CoV Urbani [1]: 0.2
- Binding of serum SARS-yellow to looped/cyclic peptides of protein X4 of SARS-CoV Urbani [1]: 0.4
- Binding of Control Serum Blood-Bank to Looped peptides [2]: 0.8
- Binding of Control serum Blood-bank to linear peptides [2]: 0.7
- Binding of Control serum LUMC to linear peptides [2]: 0.5
- Binding of Control serum LUMC to looped peptides [2]: 0.7
- Rabbit serum linear peptides [3]: 0.5
- Rabbit serum looped peptides [3]: 0.1
